# Data from patent US20090137612A1, “Treatment with combined use of oxypurines and ascorbate to prevent and mitigate iron-catalized oxidative damage in Alzheimer's disease and other neurodegenerative disorders” (priority 2007, published 2009).
# How the values were obtained:
# [1] = cited from earlier work; for elevating human serum uric acid levels when given orally: humans (normal adults and gouty individuals), literature
# [2] = Inhibition of o-dianisidine oxidation induced by reaction of ferrous sulfate with hydrogen peroxide (colorimetric, 460 nm); assay type: biochemical
# Method: (§1) All chemicals used in the following first 4 EXAMPLES for this invention were of analytical quality. A colorimeter was used to detect peroxidations of o-dianisidine, 9 mg/dL, as chromogenic hydrogen donor when oxidized, with its absorbance measured at 460 nm in saline solutions (140 mM NaCl, buffered by 3 mM phosphate salts at pH 7.4). Ferrous sulfate or human hemoglobin was added to control and to test solutions containing uric acid or ascorbic acid shortly before the addition of hydrogen peroxide, with oxidized molecules of dianisidine measured promptly. The saline solutions were mimetic of cerebrospinal fluid except devoid of possible confounding other molecules.
# Uric Acid Inhibition of Substrate Oxidations Induced by Reaction of Ferrous Sulfate (9.8 Micromolar) with 20 Micromolar Hydrogen Peroxide
# Comment: All incubations were done at 25-28° Celsius.
# Ascorbic Acid Inhibition at 1.6 mg/dl of Substrate Oxidation Induced by Reaction of Ferrous Sulfate (9.8 Micromolar) with 20 Micromolar Hydrogen Peroxide
# [3] = intravenously, healthy humans; Chamorro A et al., 2004; cited from earlier work
# [4] = biological target: human hemoglobin (Homo sapiens, UniProt P68871+P69905); assay: Inhibition of o-dianisidine oxidation by human hemoglobin in reaction with hydrogen peroxide (colorimetric, 460 nm); assay type: biochemical; conditions: hemoglobin 12 mg/dl, 20 micromolar H2O2
# Sequence of human hemoglobin (P69905 2-142 limits assumed): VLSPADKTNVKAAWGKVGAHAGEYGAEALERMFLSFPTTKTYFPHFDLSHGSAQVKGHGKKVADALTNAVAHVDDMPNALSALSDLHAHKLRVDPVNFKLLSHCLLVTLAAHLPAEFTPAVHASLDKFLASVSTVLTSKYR
# Sequence of human hemoglobin (P68871 2-147 limits assumed): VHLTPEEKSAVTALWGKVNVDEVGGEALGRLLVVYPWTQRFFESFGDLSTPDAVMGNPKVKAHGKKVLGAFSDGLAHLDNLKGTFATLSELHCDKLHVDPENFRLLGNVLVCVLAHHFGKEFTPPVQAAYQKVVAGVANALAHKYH
# Method: as §1
# Uric Acid Inhibition of Substrate Oxidation by Human Hemoglobin Level of 12 mg/dl in Reaction with 20 Micromolar Hydrogen Peroxide
# Ascorbic Acid Inhibition at 1.6 mg/dl of Substrate Oxidation Induced by Human Hemoglobin Level of 12 mg//dl in Reaction with 20 Micromolar Hydrogen Peroxide
# Comments: The inhibition remained virtually complete in EXAMPLE 4 at 10 minutes of continued exposure to the hydrogen peroxide, in spite of greater absorbance increase or oxidation in the control solutions from continuing reaction of the peroxide with the iron that resided in the hemoglobin. […] He used higher concentrations of hemoglobin and hydrogen peroxide (e.g. 0.67 or 0.8 mM of hydrogen peroxide) in phosphate-saline buffer with 2 hour incubations at 37° C.
# [5] = known in the art, in words; cited from earlier work
# [6] = Urate 0.5 mg/dL, 5 min. after H2O2, n 4
# [7] = Urate 0.5 mg/dL, 10 min. after H2O2, n 4
# [8] = Urate 6.0 mg/dL, 10 min. after H2O2, n 4
# [9] = Ascorbate 1.6 mg/dL, 5 min. after H2O2, n = 4
# [10] = Ascorbate 1.6 mg/dL, 10 min. after H2O2, n = 4
smiles,measurement,setting,value
"O=c1[nH]c(=O)c2[nH]c(=O)[nH]c2[nH]1 [Urate, 2,6,8-oxypurine]",elevating human serum uric acid levels when given orally,[1],ineffective
same,Absorbance Increase,"[2]; Urate 0.5 mg/dL, 5 min. after H2O2, 460 nm, mean ± s.e.m., n 5",0.030 ± 0.003
same,% Inhibition,"[2]; Urate 0.5 mg/dL, 5 min. after H2O2, mean ± s.e.m., n 5",36.8 ± 5.3 %
same,Absorbance Increase,"[2]; Urate 0.5 mg/dL, 10 min. after H2O2, 460 nm, mean ± s.e.m., n 5",0.034 ± 0.017
same,% Inhibition,"[2]; Urate 0.5 mg/dL, 10 min. after H2O2, mean ± s.e.m., n 5",26.5 ± 5.5 %
same,Absorbance Increase,"[2]; Urate 6.0 mg/dL, 5 min. after H2O2, 460 nm, pH 7.4 saline, 25-28° Celsius, mean ± s.e.m., n 5",0.012 ± 0.003
same,% Inhibition,"[2]; Urate 6.0 mg/dL, 5 min. after H2O2, mean ± s.e.m., n 5",75.3 ± 4.8 %
same,Absorbance Increase,"[2]; Urate 6.0 mg/dL, 10 min. after H2O2, 460 nm, mean ± s.e.m., n 5",0.014 ± 0.003
same,% Inhibition,"[2]; Urate 6.0 mg/dL, 10 min. after H2O2, mean ± s.e.m., n 5",70.9 ± 4.5 %
same,tolerability of intravenous administration,[3],without untoward effects
same,% Inhibition,[4]; [6],50.7 ± 7.56 %
same,Absorbance Increase,[4]; [6],0.028 ± 0.004
same,% Inhibition,[4]; [7],38.8 ± 3.25 %
same,Absorbance Increase,[4]; [7],0.052 ± 0.009
same,Absorbance Increase,"[4]; Urate 6.0 mg/dL, 5 min. after H2O2, mean ± s.e.m., n 4",0.006 ± 0.002
same,% Inhibition,"[4]; Urate 6.0 mg/dL, 5 min. after H2O2, n 4",90.6 ± 0.90 %
same,% Inhibition,[4]; [8],80.3 ± 3.54 %
same,Absorbance Increase,[4]; [8],0.016 ± 0.005
same,solubility in water,[5],difficulty soluble in water
O=c1[nH]cnc2nc[nH]c12 [hypoxanthine],raise of serum or plasma uric acid level,"[1]; about 0.9 gram given orally (0.1 mmole/kg), persons of near 70 kg, Clifford A J et al., 1976",about 2.4 mg/dL
same,elevating human serum uric acid levels when given orally,[1],effectively raise serum uric acid levels
same,solubility in water,[5],more soluble in water
"O=C1O[C@H]([C@@H](O)CO)C(O)=C1O [Ascorbate, L-ascorbic acid]",Absorbance Increase,"[2]; Ascorbate 1.6 mg/dL, 5 min. after H2O2, mean ± s.e.m., n = 4",0.000 ± 0.000
same,% Inhibition,[2]; [9],100.0 ± 0.0 %
same,% Inhibition,[2]; [10],100.0 ± 0.0 %
same,Absorbance Increase,[2]; [10],0.000 ± 0.000
same,% Inhibition,[4]; [9],100.0 ± 0.0 %
same,Absorbance Increase,[4]; [9],0.000 ± 0.000
same,% Inhibition,[4]; [10],99.8 ± 1.2 %
same,Absorbance Increase,[4]; [10],0.001 ± 0.008
O=c1[nH]c(=O)c2[nH]cnc2[nH]1 [xanthine],elevating human serum uric acid levels when given orally,[1],not
same,solubility in water,[5],difficulty soluble in water
